From patent US20260102407A1, “TREATMENT METHODS” (priority 2020, published 2026)

What was measured:
[1] = Solubility on dilution in medium containing serum; type: physicochemical
CD31 = assay: Matrigel plug assay, CD31 staining; type: in vivo; details: C57BL/6 mice; 2.5 mg/mouse in plug with VEGF-A165 and heparin; 7 days
Description: Matrigel plug assay. Matrigel (500 μl) containing VEGF-A165 (100 ng/ml), heparin (10U) and BT2 or BT3 (2.5 mg/mouse) or its vehicle (saline containing 0.01% DMSO and 0.5% Tween 80) was injected subcutaneously into the left flanks of male 8 week-old C57BL/6 mice. After 7d the mice were sacrificed by CO2 asphyxiation and the plugs carefully removed. Formalin-fixed paraffin embedded sections were prepared from Matrigel plugs for immunohistological assessment. Heat-induced epitope retrieval was applied to all deparaffinized sections (4 μm Superfrost slides) in citrate buffer, pH 6 for 5 min at 110° C. Immunostaining for all groups with a given antibody was performed simultaneously and development time was identical. […]
Slides were scanned using an Aperio ScanScope XT slide scanner (Leica Biosystems, Mt Waverley, Vic Australia) and images captured using ImageScope software (Leica Biosystems). Positive intraplug staining was assessed using Image-Pro Plus software (Cybernetics, Bethesda, MD) in 5-12 randomly selected fields of view for each plug photographed under 10× (CD31), 20× (VCAM-1) and 40× (FosB) objectives and expressed as integrated optical density (IOD, the product of calibrated intensity (optical density) and area, i.e. IOD=intensity (mean)×area) (Media Cybernetics) (Liu, H., et al., Sci Rep 6, 21319 (2016)). […]

HMEC-1 = assay: Endothelial proliferation assay using the xCELLigence system; type: cell-based, human; details: for serum-inducible endothelial proliferation (xCELLigence cell index): HMEC-1, 5% FBS, 0.2-1 μM, 79 h
Description: Endothelial proliferation assay using the xCELLigence system. HMEC-1 proliferation was evaluated using the xCELLigence System (Roche, Castle Hill). Briefly, HMEC-1 (5×10^3 cells/well) were seeded in a 96-well E-plate and inserted into the xCELLigence RTCA station (Roche). Cells were serum-deprived for 24 h in MCDB131 medium which contained 10 ng/ml EGF (Sigma-Aldrich) and 1 μg/ml hydrocortisone (Sigma-Aldrich) then treated with compound (0.2-1 μM) in medium containing 5% FBS, 10 ng/ml EGF (Sigma-Aldrich) and 1 μg/ml hydrocortisone (Sigma-Aldrich). Cell growth was monitored automatically every 15 min by xCELLigence system. Cell index (CI) represents a quantitative measure of each well cell growth. In this system, CI a unitless parameter that reports impedance of electron flow caused by adherent cells.

[2] = biological target: T1, Recombinant human His-MEK2 (Homo sapiens, UniProt P36507); assay: SPR (Biacore T200) on immobilised His-MEK2; type: binding; details: 15° C.; 20 mM HEPES, 150 mM NaCl, 5% DMSO pH 7.4
T1 construct: purchased ThermoFisher Scientific PV3615
Description: (§1) SPR. SPR was performed on a Biacore T200. The active and reference flow cells of a Xantec NIHMC Ni sensor chip were conditioned with 0.5M NaEDTA followed by 5 mM NiCl2 in immobilisation buffer (20 mM HEPES, 150 mM NaCl, pH 7.4). Recombinant human His-MEK1 and His-MEK2 (500 nM, ThermoFisher Scientific, cat. PV3303 and PV3615, respectively) were injected for 15 min at 10 μl min^−1 over separate active flow cells. All immobilisation was carried out at 25° C. Following immobilisation, the temperature was lowered to 15° C., and the buffer changed to 20 mM HEPES, 150 mM NaCl, 5% DMSO pH 7.4. Samples of PD98059 (2.5-30 μM in running buffer) and BT2 (1.25-15 μM) were injected at a flow rate of 30 μl min^−1 over immobilised MEK1 and MEK2. Solvent correction was applied to the data using a DMSO standard curve. Data were analysed using the Biacore T200 Evaluation software. Prior to SPR, limits of compound solubility were determined using ^1H 1D NMR.

HY79b pigmented rabbits = assay: Rabbit retinal vascular hyperpermeability model induced by rhVEGF-A165; type: in vivo
Description: Rabbit retinal vascular hyperpermeability model. Male HY79b pigmented rabbits (8-12 week-old) were anesthetized by an intramuscular injection of Rompun® (xylazine)/Imalgene® (ketamine). Compound (600 μg BT2, BT3 or saline vehicle containing 0.5% Tween 80 and 10% DMSO vehicle in 100 μl) was injected into the right eye 5d prior to rhVEGF-A165 induction. Injections were performed on anesthetized animals under an operating microscope using a 250 μl Hamilton syringe (fitted with 30G needle). Retinal vascular permeability was induced by a single 50 μl IVT injection of 500 ng rhVEGF-A165 (diluted in PBS with carrier protein) into the right eye. Forty-seven hours (+/−3 h) after induction, sodium fluorescein (10% in saline, 50 mg/kg) was injected into the marginal ear vein. One hour after fluorescein injection, animals were anaesthetized and pupils were dilated by instillation of one drop of 0.5% tropicamide. Ocular fluorescence in both eyes was measured with a FM-2 Fluorotron Master ocular fluorophotometer. Animals were euthanized by injection of pentobarbital.

[3] = biological target: T2, Recombinant human His-MEK1 (Homo sapiens, UniProt Q02750); assay: SPR (Biacore T200) on immobilised His-MEK1; type: binding; details: 15° C.; 20 mM HEPES, 150 mM NaCl, 5% DMSO pH 7.4
T2 construct: purchased ThermoFisher Scientific PV3303
Description: as §1

T1 sequence (P36507 whole entry): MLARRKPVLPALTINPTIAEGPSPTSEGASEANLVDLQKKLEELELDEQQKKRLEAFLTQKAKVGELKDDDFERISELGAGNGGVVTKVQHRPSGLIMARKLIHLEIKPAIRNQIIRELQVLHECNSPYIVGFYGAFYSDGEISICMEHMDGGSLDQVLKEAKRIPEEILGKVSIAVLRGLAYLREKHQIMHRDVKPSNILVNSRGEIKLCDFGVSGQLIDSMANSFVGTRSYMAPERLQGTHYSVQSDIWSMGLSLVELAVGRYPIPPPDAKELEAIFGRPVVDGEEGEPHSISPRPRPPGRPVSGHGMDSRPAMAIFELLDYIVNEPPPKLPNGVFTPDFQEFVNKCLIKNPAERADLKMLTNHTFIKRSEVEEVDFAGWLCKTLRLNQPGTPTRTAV
T2 sequence (Q02750 whole entry): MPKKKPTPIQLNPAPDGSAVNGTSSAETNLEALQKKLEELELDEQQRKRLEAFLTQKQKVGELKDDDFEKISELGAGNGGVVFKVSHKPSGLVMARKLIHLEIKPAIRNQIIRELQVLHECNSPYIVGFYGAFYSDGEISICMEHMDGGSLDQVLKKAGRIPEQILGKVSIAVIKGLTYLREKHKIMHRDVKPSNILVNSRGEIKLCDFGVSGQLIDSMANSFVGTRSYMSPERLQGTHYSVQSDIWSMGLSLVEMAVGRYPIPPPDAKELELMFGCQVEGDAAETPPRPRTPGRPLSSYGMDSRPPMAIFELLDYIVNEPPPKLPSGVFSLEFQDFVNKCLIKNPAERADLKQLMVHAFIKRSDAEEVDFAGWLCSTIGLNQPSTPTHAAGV

Row | Structure (SMILES) | effect of serum in the diluent on solubility ([1]; adding serum to the diluent) | new blood vessel formation (CD31 staining) in Matrigel plugs (CD31) | serum-inducible endothelial proliferation (xCELLigence cell index) (HMEC-1) | biological activity of formulation after autoclaving (HMEC-1; autoclaved (121° C., 15 psi, 20 min), 4 months storage at 22° C., 0.4, 0.8 μM) | biological efficacy of stored formulation (HMEC-1; heat-treated or not, storage up to 16 months) | inhibition of serum-inducible endothelial proliferation by stored formulation (HMEC-1; with or without 100° C. for 10 min, 6 weeks storage, 0.4, 0.8 μM) | binding to His-MEK2 (SPR) [2] | inhibition of retinal leakage induced by rhVEGF-A165 (HY79b pigmented rabbits; single IVT 600 μg, 5 d before induction, after 2 days) [%] | binding to His-MEK1 (SPR) [3] | solubility relative to BT2 and analogues ([1]; dilution in medium containing serum) | effect on retinal vascular leakage induced by rhVEGF-A165 (HY79b pigmented rabbits; IVT 600 μg, fluorescence ratio R/L)
1 | CCOC(=O)Nc1ccc2c(c1)C(=O)N(CC)c1ccccc1O2 [BT2, (10-ethyl-11-oxo-10,11-dihydro-dibenzo[b,f][1,4]oxazepin-2-yl)-carbamic acid ethyl ester] | increased BT2 solubility | suppressed new blood vessel formation | inhibited serum-inducible proliferation at concentrations in a dose-dependent manner | biologically active | no loss in biological efficacy | retained its ability to inhibit serum-inducible endothelial proliferation | bound to His-MEK1 significantly better than to His-MEK2 | ~50 | bound to His-MEK1 significantly better than to His-MEK2 |  | 
2 | CCN1C(=O)c2cc(N)ccc2Oc2ccccc21 [BT3, 2-amino-10-ethyldibenzo[b,f][1,4]oxazepin-11 (10H)-one] |  | no effect | no inhibitory effect |  |  |  | no appreciable binding |  | no appreciable binding | the most soluble of all these dibenzoxazepinones | inactive
